Source: article PMC3693772, “Protein expression, biochemical pharmacology of signal transduction, and relation to intraocular pressure modulation by bradykinin B2 receptors in ciliary muscle” (Molecular Vision, 2013)
Read-outs that look alike come from different tables or passages of the source. One block for each compound: values may come before it.

Experiments:
primary h-CM cells = format: cell-based, human; conditions: for EC50: 1 h at 37 °C, enzyme immunoassay, mean ± SEM, 3 to 6 experiments, read-out: Total PGs production in h-CM cells (EC50)
[1] = test system: CHO-B2 cells (human cloned B2 receptor); format: cell-based, Chinese hamster ovary cells; conditions: for EC50: 1 h at 37 °C, enzyme immunoassay, mean ± SEM, 3 to 6 experiments, read-out: Total PGs production in CHO-B2 cells (EC50); for PG production/release by compound alone, CHO-B2 cells: compound on its own
[2] = test system: B2-receptor, primary h-CM cells; format: cell-based, human
Method: Functional assay measuring [Ca^2+]i mobilization in cultured human ciliary muscle cells
Accordingly, we isolated h-CM cells and studied BK-induced [Ca^2+]i mobilization in these cells using the Fluorescence Imaging Plate Reader (FLIPR; Molecular Devices, Menlo Park, CA) instrument as previously described. Low passage h-CM cells were seeded at a density of about 20,000 cells/well in a black-wall, 96-well tissue culture plates and grown for 2 days. On the day of the experiment, one vial of FLIPR Calcium Assay Kit dye (Molecular Devices) was resuspended in 50 ml of a FLIPR buffer consisting of Hank’s Balanced Salt Solution (HBSS), 20 mM HEPES, and 2.5 mM probenecid, pH 7.4. Cells were loaded with the calcium-sensitive dye (proprietary to Molecular Devices) by adding an equal volume (50 µl) to each well of the 96-well plate and incubated with dye for 1 h at 23 °C. Then the test compound plate and the cell plate were placed in the FLIPR instrument, and an aliquot (25 μl) of the BK solution (positive control) or the test compound was added to the existing 100 μl dye-loaded cells at a dispensing speed of 50 μl/sec. Fluorescence data were collected in real time over a period of time. Responses were measured as peak fluorescence intensity minus basal and where appropriate are expressed as a percentage of a maximum BK-induced response [Emax %]. When antagonist studies were performed, the latter were incubated with the cells for 15 min before BK was added. When the effects of various cellular signaling inhibitors/treatments were investigated, they were added to the cells 5 min before BK was added. The potencies (EC50 or IC50 values) of agonists and antagonists were determined from concentration-response curves using a sigmoidal-fit, iterative algorithm of a computer program designed to automatically fit the raw data (ActivityBase, IDBS, Surrey, UK). […] Concentration-response curves and other plots for the manuscript were constructed using Origin® software package (Microcal® Software Inc., Northampton, MA).
Figure 3 Concentration-dependent effect of bradykinin (BK) on mobilization of [Ca^2+]i in normal, primary h-CM cells. Fluorescent dye-loaded h-CM cells were exposed to different concentrations of BK and the changes in relative fluorescence units (RFUs), indicating changes in levels of [Ca^2+]i, monitored over time (Figure 3A). The peak responses to various BK concentrations were then used to construct the concentration-response curves. Other BK-related peptides were tested in the same manner and their concentration-response curves plotted (e.g., data from a representative experiment; Figure 3B).

cynomolgus monkey eyes = conditions: cabergoline 50 µg topical, ocular hypertensive eyes, nine monkeys, ref Thirty ([30]), cited from earlier work
Excerpt: Table 4 Effects of topical ocular bradykinin on IOP of Cynomolgus monkey eyes | column: Monkey IOP changes after topical ocular dosing / IOP (mmHg); Monkey IOP changes after topical ocular dosing / IOP change (% of control)

CHO-B2 cells [3] = format: cell-based, Chinese hamster ovary cells, human cloned B2 receptor; conditions: 1 h at 37 °C; enzyme immunoassay; mean ± SEM, 3 to 6 experiments; read-out: PGE2 production in CHO-B2 cells (EC50)
primary h-TM cells = format: cell-based, human; conditions: preliminary data, values rounded-off, read-out: Agonist potency at stimulating [Ca^2+]i mobilization in primary h-TM cells (EC50)
h-CM cells [4] = format: cell-based, human; conditions: 1 h at 37 °C; enzyme immunoassay; mean ± SEM, 3 to 6 experiments; read-out: PGF2α production in h-CM cells (EC50)
CHO-B2 cells [5] = format: cell-based, Chinese hamster ovary cells, human cloned B2 receptor; conditions: 1 h at 37 °C; enzyme immunoassay; mean ± SEM, 3 to 6 experiments; read-out: PGF2α production in CHO-B2 cells (EC50)
h-CM cells [6] = format: cell-based, human; conditions: 1 h at 37 °C; enzyme immunoassay; mean ± SEM, 3 to 6 experiments; read-out: PGE2 production in h-CM cells (EC50)
CHO-B2 cells [7] = conditions: read-out: PGD2 production in CHO-B2 cells (EC50), 1 h at 37 °C, enzyme immunoassay
Method: Measurement of prostaglandins in human ciliary muscle and Chinese hamster ovary cells expressing B2 receptors
This involved stimulating h-CM cells and CHO-B2 cells with various concentrations of test peptides and measuring the release of various PGs in the extracellular medium. The concentration-dependent effects of these peptides on total PGs, and specifically PGE2, PGF2α, and PGD2 release, were studied. Cells were grown as a monolayer in a 24-well plate (precoated with fibronectin) to confluence and subsequently serum-starved overnight before the experiment. On the day of the experiment, just before the drug was added, the wells were aspirated completely, and 990 µl basal medium and 10 µl 100× series of concentrations of the different peptide agonists were added to achieve the desired final concentrations of each compound (e.g., 0.1 nM to 10 µM). […] At the end of the incubation period, the cellular supernatants were collected and stored at −80 °C or used immediately to determine the PG content. Cell supernatants were tested for total PG levels and sub-species of PGs (PGE2, PGF2α, and PGD2) using specific competitive enzyme immunoassays (Cayman Chemical Co., Ann Arbor, MI) as directed in the manufacturer’s recommended protocols using the supplied standards and reagents. The limits of detection for various PGs were as follows: total PGs=29 pg/ml; PGE2=15 pg/ml; PGF2α=9 pg/ml; PGD2=200 pg/ml.

Compound: CNCC(=O)N[C@@H](CCCNC(=N)N)C(=O)N1CCC[C@H]1C(=O)N1CCC[C@H]1C(=O)NCC(=O)N[C@@H](Cc1ccccc1)C(=O)N[C@@H](CO)C(=O)N1CCC[C@H]1C(=O)N[C@H](Cc1ccccc1)C(=O)O [Sar-[D-Phe^9]-Des-Arg^9-BK]
- EC50 (primary h-CM cells): > 1000 nM
- EC50 [1]: > 1 nM

Compound: O=C(O)CN(CCOCCOCCN(CC(=O)O)CC(=O)O)CC(=O)O [EGTA, ethylene glycol tetraacetic acid]
- Effect on BK-induced [Ca^2+]i mobilization ([2]; EGTA 1 mM, 5 min preincubation): complete abolition of the response to BK
- Effect on BK-induced [Ca^2+]i mobilization ([2]; EGTA 1–2 mM): totally abolished
- Effect on BK-induced [Ca^2+]i mobilization ([2]; EGTA 1–2 mM, listed as ethylene glycol tetraacetic acid): abolished

Compound: C/C=C(/C)C(=O)O[C@H]1C(C)=C2[C@H]([C@@H]1OC(=O)CCCCCCC)[C@@](C)(OC(C)=O)C[C@H](OC(=O)CCC)[C@@]1(O)[C@H]2OC(=O)[C@@]1(C)O [thapsigargin]
- Reduction of BK-mobilized [Ca^2+]i levels vs control cells ([2]; thapsigargin 0.1 or 30 µM preincubation): > 50%
- Effect on response to BK after thapsigargin ([2]; thapsigargin pretreatment): blunted but not abolished
- Effect on BK-induced [Ca^2+]i rise in presence of EGTA ([2]; thapsigargin, 1 mM EGTA included): concentration-dependently reduced

Compound: C=CCN1C[C@H](C(=O)N(CCCN(C)C)C(=O)NCC)C[C@@H]2c3cccc4[nH]cc(c34)C[C@H]21 [Cabergoline, cabergoline]
- IOP (cynomolgus monkey eyes; 0 h): 34.7±3.0 mmHg
- IOP change (% of control) (cynomolgus monkey eyes; 0 h): 0%
- IOP change (% of control) (cynomolgus monkey eyes; 1 h): -16.0%
- IOP change (% of control) (cynomolgus monkey eyes; 3 h): -30.4%
- IOP change (% of control) (cynomolgus monkey eyes; 7 h): -28.8%
- IOP change (% of control) (cynomolgus monkey eyes; 24 h): -27.3%

Compound: N=C(N)NCCC[C@H](NC(=O)[C@H](Cc1ccccc1)NC(=O)[C@@H]1CCCN1C(=O)[C@H](CO)NC(=O)[C@H](Cc1ccccc1)NC(=O)CNC(=O)[C@@H]1C[C@@H](O)CN1C(=O)[C@@H]1CCCN1C(=O)[C@@H](N)CCCNC(=N)N)C(=O)O [Hyp^3-BK]
- EC50 (CHO-B2 cells [3]): 0.0307 ± 0.0185 nM
- EC50 (primary h-TM cells): 1 nM
- EC50 ([2]; primary h-CM cells, FLIPR, Calcium Assay Kit dye, pH 7.4, 23 °C dye loading, mean ± SEM, n=3-7, read-out: Agonist potency at stimulating [Ca^2+]i mobilization in primary h-CM cells (EC50)): 2.2 ± 0.2 nM
- EC50 (h-CM cells [4]): 9.2 ± 5.3 nM
- EC50 (primary h-CM cells): 10.9 ± 6.1 nM
- EC50 (CHO-B2 cells [5]): 0.0593 ± 0.0373 nM
- EC50 (h-CM cells [6]): 10.1 ± 4.2 nM
- EC50 [1]: 0.0683 ± 0.0367 nM
- EC50 (CHO-B2 cells [7]; first of two values in cell): 0.0304 nM
- EC50 (CHO-B2 cells [7]; second of two values in cell): 0.0582 nM

Compound: N=C(N)NCCC[C@H](N)C(=O)N1CCC[C@H]1C(=O)N1CCC[C@H]1C(=O)NCC(=O)N[C@@H](Cc1ccccc1)C(=O)N[C@@H](CO)C(=O)N1CCC[C@H]1C(=O)N[C@@H](Cc1ccccc1)C(=O)O [Des-Arg^9-BK]
- EC50 (CHO-B2 cells [3]): > 100 nM
- EC50 (primary h-TM cells): 3600 nM
- EC50 (h-CM cells [4]): > 1000 nM
- EC50 (primary h-CM cells): > 1000 nM
- EC50 (CHO-B2 cells [5]): > 100 nM
- EC50 (h-CM cells [6]): > 1000 nM
- EC50 [1]: > 100 nM
- EC50 (CHO-B2 cells [7]; one bound printed): > 100 nM

- EC50 (h-CM cells [4]): > 10000 nM
- EC50 (primary h-CM cells): > 10000 nM
- EC50 (h-CM cells [6]): > 10000 nM
Compound: CCCC[P+](CCCC)(CCCC)Cc1ccc(NC(=O)[C@H](Cc2ccc3ccccc3c2)NC(=NC2CCCCC2)NC2CCCCC2)cc1.[Cl-] [(S)-WIN-64338]
- EC50 (CHO-B2 cells [3]): > 10 nM
- PG production/release by compound alone, h-CM cells (primary h-CM cells; compound on its own, listed as WIN-64338): did not induce PGs release
- Effect on BK-induced total PGs production, h-CM cells (primary h-CM cells): blocked
- Effect on BK-induced total PGs production, h-CM cells (primary h-CM cells; listed as WIN-64338): potent antagonism
- EC50 (CHO-B2 cells [5]): > 10 nM
- EC50 [1]: > 10 nM
- Effect on BK-induced total PGs production, CHO-B2 cells [1]: blocked
- Effect on BK-induced total PGs production, CHO-B2 cells ([1]; listed as WIN-64338): potent antagonism
- PG production/release by compound alone, CHO-B2 cells [1]: failed to influence PG production
- PG production/release by compound alone, CHO-B2 cells ([1]; listed as WIN-64338): did not induce PGs release

Compound: ryanodine
- Effect on BK-induced [Ca^2+]i levels ([2]; ryanodine 1–30 µM, data not shown): did not enhance but instead slightly reduced the effect of BK
